Measured values published in US10590462B2, “Probes and assays for measuring E3 ligase activity” (NORTHWESTERN UNIVERSITY, priority 2014, dated 2020).

Test system: Rsp5 HECT domain
Assay: UbiFlu real-time fluorescence polarization kinetics with Rsp5 HECT domain
Format: biochemical, S. cerevisiae
Settings: in the presence of 8× SFlu

SMILES: O=C1OC2(c3ccc(O)cc3Oc3cc(O)ccc32)c2ccc(NC(=S)NCCS)cc21 [SFlu]
- inhibition of UbiFlu consumption: no inhibition
